According to patent publication US8613962B2, “Prophylactic or alleviating agent for peripheral nerve disorder induced by anti-cancer agent” (Kyushu University, National University Corporation, priority 2007, dated 2013):

Assays:
[1] = test system: rat peripheral nerve disorder induced by oxaliplatin; conditions: rats; oxaliplatin alone 4 mg/kg i.p. twice per week; second week; FIG. 5
[2] = test system: rat peripheral nerve disorder induced by oxaliplatin; conditions: rats; oxaliplatin alone 4 mg/kg i.p.; second week; FIG. 6
[3] = test system: rat peripheral nerve disorder induced by paclitaxel; type: in vivo; conditions: SD male rats; paclitaxel alone 6 mg/kg i.p. once a week for 4 weeks; FIG. 1
[4] = test system: rat peripheral nerve disorder induced by paclitaxel; type: in vivo; conditions: SD male rats; paclitaxel alone 6 mg/kg i.p.; FIG. 2
[5] = test system: rat peripheral nerve disorder induced by paclitaxel; type: in vivo; conditions: rats; paclitaxel alone
Method: 7 and 8-week-old SD male rats were used as experimental animals and separated into three groups of a control group, group administered with paclitaxel, and group administered with paclitaxel and the test substance (group administered with paclitaxel+test substance). To the group administered with paclitaxel, paclitaxel (6 mg/kg) was intraperitoneally administered once a week for 4 weeks in a total of 4 times. To the group administered with paclitaxel+test substance, the test substance (200 NU/kg) was orally administered three times a week, that is, just before the paclitaxel administration and on days 1 and 2 after the paclitaxel administration, for 4 weeks in a total of 12 times. To the control group, a solvent (polyoxyethylene castor oil:ethanol=1:1) used in the paclitaxel administration was similarly administered.

PC12 cells = type: cell-based, rat; conditions: forskolin-induced, 10 ng/mL paclitaxel only, 168 hours, FIG. 3
DRG cells = type: cell-based, rat; conditions: 10 ng/mL paclitaxel only, 168 hours, FIG. 4

| 50% reaction threshold value (von Frey test), compared with control group [3] | latent time to avoidance reaction (acetone test, cold stimuli) [4] | latent time (plantar test, heat stimuli) [5] | neurite outgrowth (neurite length) (PC12 cells) | neurite outgrowth (neurite length) (DRG cells) | SMILES | 50% reaction threshold value (von Frey test), compared with control group [1] | latent time to posterior foot avoidance (cold plate test, 4° C.) [2] |
| --- | --- | --- | --- | --- | --- | --- | --- |
| – | – | – | – | – | O=C1[O][Pt]2([NH][C@@H]3CCCC[C@H]3[NH]2)[O]C1=O [oxaliplatin] | remarkably lowered | remarkably shortened |
| remarkably lowered | remarkably shortened | not shortened | inhibited | inhibited | CC(=O)O[C@H]1C(=O)[C@@]2(C)[C@H]([C@H](OC(=O)c3ccccc3)[C@]3(O)C[C@H](OC(=O)[C@H](O)[C@@H](NC(=O)c4ccccc4)c4ccccc4)C(C)=C1C3(C)C)[C@]1(OC(C)=O)CO[C@@H]1C[C@@H]2O [paclitaxel] | – | – |
